Results: patent US20090163451A1, “METHODS FOR TREATING VISCERAL PAIN” (priority 2007, published 2009)
“Also recorded” adds a separate entry of the source.

Assays:
[1] = tested on: rats with experimental pancreatitis (DBTC), referred abdominal hypersensitivity; test: experimental pancreatitis model (IV DBTC): referred abdominal hypersensitivity, withdrawals to von Frey filament; format: in vivo, Sprague Dawley rats; details: DBTC rats; for effect of concurrent RVM antagonist on the effect of RVM sumatriptan: sumatriptan 10 μg RVM; for effect of concurrent RVM antagonist on the effect of RVM sumatriptan / effect of RVM antagonist on the effect of systemic sumatriptan: antagonist 3 μg RVM
Protocol: (§1) Adult male Sprague Dawley rats (Harlan, Indianapolis, Ind.), weighing 150-200 g, were maintained in a climate-controlled room with ad lib food and water on a 12 hour/12 hour light/dark cycle (lights on at 07:00 hours). All procedures followed the policies of the International Association for the Study of Pain and the NIH guidelines for the handling and use of laboratory animals. Studies were approved by the University of Arizona IACUC.
(§2) Dibutyltin dichloride (DBTC) was obtained from Sigma-Aldrich (Milwaukee, Wis.) and dissolved in 100% ethanol to a concentration of 8 mg/kg (Sparmann et al., Gastroenterology. 112:1664-1672 (1997))). Sumatriptan succinate was obtained from Toronto Research Chemicals (ON, Canada) and dissolved in saline to 1, 3, and 10 μg for RVM microinjections and 100, 200, and 300 μg/kg for systemic injections (Kayser et al., Br J Pharmacol. 137:1287-1297 (2002)). The 5HT1B antagonist isamoltane and the 5HT1D antagonist BRL15722 were obtained from Tocris (Elllisville, Mo.). Isamoltane was dissolved in saline to a concentration of 3 μg for RVM microinjection and to a concentration of 4 mg/kg (Ottani et al., Eur J Pharmacol. 497:181-186 (2004)) for system application. BRL15722 was dissolved in 10% DMSO to a concentration of 3 μg for RVM microinjection and to a concentration of 0.3 mg/kg (Ottani et al., Eur J Pharmacol. 497:181-186 (2004)) for systemic application.
For the experiments involving microinjection of drugs into the RVM, rats underwent surgeries to implant RVM cannulae. After five days of recovery, rats received either intravenous injection of DBTC to induce pancreatitis, or intracolonic injection of sodium butyrate to induce colonic hypersensitivity. Animals were monitored for development of visceral hypersensitivity on the subsequent days. On day six after either induction of pancreatitis or colonic hypersensitivity, animals underwent baseline behavioral measurements. […] For experiments investigating the effects of serotonin antagonists, the drugs were microinjected concurrently with injection of sumatriptan and animals were monitored for the subsequent two h. Separate groups of animals were microinjected with the antagonists alone to control for possible effects of the drugs by themselves.
For the experiments involving systemic drug administration, rats received intravenous injection of DBTC to induce pancreatitis or intracolonic injection of sodium butyrate to induce colonic hypersensitivity. On day six after either induction of pancreatitis of colonic hypersensitivity, animals underwent baseline behavioral measurements. […] Separate groups of animals were injected with the antagonists alone. Additionally, separate groups of animals were injected with sumatriptan systemically and microinjected with the antagonists in the RVM to determine if the RVM is a site of action for systemically applied sumatriptan. The microinjection of antagonists into the RVM was done immediately following the systemic injection of sumatriptan. All animals were tested for behavioral signs of hypersensitivity every 20 min for two h after the end of the injections.
Pancreatitis was produced by a tail vein injection of dibutyltin dichloride (DBTC, Aldrich, Milwaukee, Wis., 0.25 cc) dissolved in 100% ethanol at a dose of 8 mg/kg under isofluorane anesthesia (2-3 liters/min, 4.0%/vol until anesthetized, then 2.5%/vol throughout the procedure; Vera-Portocarrero et al., Gastroenterology. 130:2155-2164 (2006)). Control animals were injected with the vehicle solution only (100% ethanol, 0.25 mL).
Referred abdominal hypersensitivity in the pancreatitis model was quantified by measuring the number of withdrawal events evoked by application of a calibrated von Frey filament (determined by either abdominal withdrawal, licking of the abdominal area, or whole body withdrawal). Rats were placed inside Plexiglas boxes on an elevated fine fiberglass screen mesh and acclimated for 30 minutes before testing. […]

[2] = tested on: rats with experimental colonic hypersensitivity (butyrate), referred lumbar hypersensitivity; test: colonic hypersensitivity model (intracolonic sodium butyrate): referred lumbar hypersensitivity, von Frey mechanical threshold; format: in vivo, Sprague Dawley rats; details: butyrate rats; for effect of concurrent RVM antagonist on the effect of RVM sumatriptan: sumatriptan 10 μg RVM; for effect of concurrent systemic (IP) antagonist on the effect of systemic sumatriptan: isamoltane 4 mg/kg IP or BRL15722 0.3 mg/kg IP
Protocol: as §1, §2
For the experiments involving microinjection of drugs into the RVM, rats underwent surgeries to implant RVM cannulae. After five days of recovery, rats received either intravenous injection of DBTC to induce pancreatitis, or intracolonic injection of sodium butyrate to induce colonic hypersensitivity. Animals were monitored for development of visceral hypersensitivity on the subsequent days. On day six after either induction of pancreatitis or colonic hypersensitivity, animals underwent baseline behavioral measurements. Sumatriptan was microinjected into the RVM at different doses (separate groups of rats for each dose) and animals were monitored behaviorally for two h after sumatriptan application in the RVM. For experiments investigating the effects of serotonin antagonists, the drugs were microinjected concurrently with injection of sumatriptan and animals were monitored for the subsequent two h. Separate groups of animals were microinjected with the antagonists alone to control for possible effects of the drugs by themselves.
For the experiments involving systemic drug administration, rats received intravenous injection of DBTC to induce pancreatitis or intracolonic injection of sodium butyrate to induce colonic hypersensitivity. On day six after either induction of pancreatitis of colonic hypersensitivity, animals underwent baseline behavioral measurements. Sumatriptan was injected intraperitoneally at different doses (separate groups of rats for each dose) and the animals were monitored behaviorally every 20 min for two h after injection. For experiments investigating the effects of serotonin antagonists, the drugs were injected intraperitoneally immediately following the injection of sumatriptan (separate groups for each respective antagonist). Separate groups of animals were injected with the antagonists alone. Additionally, separate groups of animals were injected with sumatriptan systemically and microinjected with the antagonists in the RVM to determine if the RVM is a site of action for systemically applied sumatriptan. The microinjection of antagonists into the RVM was done immediately following the systemic injection of sumatriptan. All animals were tested for behavioral signs of hypersensitivity every 20 min for two h after the end of the injections.
Colonic hypersensitivity was induced by enemas of a sodium butyrate solution ([…]) twice daily for 3 days (Bourdu et al., Gastroenterology. 128:1996-2008 (2005)). […]

[3] = tested on: spinal neurons, colorectal distention (CRD); details: microinjection into the RVM (Zhuo et al.); cited from earlier work
[4] = tested on: referred visceral hypersensitivity induced by pancreatic inflammation; details: microinjection into the RVM (Vera-Portocarrero et al. 2006); cited from earlier work
[5] = sumatriptan 300 μg/kg IP, listed as BRL1 5722

With `OC(CN1CCN(c2cccc(Cl)c2)CC1)C(c1ccccc1)c1ccccc1` (stereo not drawn) [BRL15722] the “effect of concurrent RVM antagonist on the effect of RVM sumatriptan” value (“effect of concurrent RVM antagonist” below) [1] was “did not block the effect of RVM sumatriptan”, the “effect of concurrent RVM antagonist” value ([1]; listed as BRL1 5722) was “did not have any effect” and the “effect of RVM antagonist on the effect of systemic sumatriptan” value (shortened to “effect of RVM antagonist”) ([1]; sumatriptan 300 μg/kg IP) was “did not block the effect of sumatriptan”. The “effect of RVM antagonist” value [1, 5] was “failed to antagonize the effects of systemic sumatriptan”, the “effect of concurrent systemic (IP) antagonist on the effect of systemic sumatriptan” value (from here on “effect of concurrent systemic”) ([1]; sumatriptan 300 μg/kg IP, isamoltane 4 mg/kg IP or BRL15722 0.3 mg/kg IP) was “reduced the effects of systemic sumatriptan; also recorded: blocked the effect of sumatriptan” and the “effect of concurrent RVM antagonist” value ([2]; antagonist 3 μg RVM) was “did not block the effect of RVM sumatriptan”. The “effect of concurrent RVM antagonist” value ([2]; antagonist 3 μg RVM, listed as BRL1 5722) was “did not have any effect”, the “effect of RVM antagonist” value ([2]; sumatriptan 300 μg/kg IP, antagonist 3 μg RVM) was “failed to antagonize the effects of systemic sumatriptan; also recorded: did not block the effect of systemic sumatriptan” and the “effect of concurrent systemic” value ([2]; sumatriptan 300 μg/kg IP) was “blocked the effect of systemic sumatriptan”. The “effect of concurrent systemic” value [2, 5] was “reduced the effects of systemic sumatriptan”.
In the case of `CCN(CC)CC(=O)Nc1c(C)cccc1C` [lidocaine], the “spontaneous activity and responses of spinal neurons to colorectal distention” value [3] is listed as “reduced spontaneous activity and responses of spinal neurons to colorectal distention; also recorded: reduced spontaneous activity and responses of spinal neurons to CRD” and the “referred visceral hypersensitivity induced by pancreatic inflammation” value [4] is listed as “attenuated referred visceral hypersensitivity”.
